Data set [1] deals with Giardia duodenalis (strain WB trophozoites). Kind of data set: Giardia adherence assay. Particulars: exposed for 5 hours. It counts as cell-based. How it is done:
Giardia strain WB was grown until confluent (grown and maintained in TYI-S-33 medium with 10% foetal bovine serum). For the assay, media of a confluent culture was replaced with fresh TYI-S-33 medium. Cultures were then cold shocked (on ice) for 40 minutes to detach trophozoites. The cell density of the cultures was adjusted to 1×10^6 cells/ml and 1 ml was added to each well of a 24 well plate already containing 1 ml of diluted compounds (see below). […] After incubation the coverslips were removed, air-dried and stained with Diff-Quik (a Romanowski stain variant). Coverslips were mounted onto glass slides using polymount. Images at 10× magnification were taken at 5 random locations per coverslip. […] Stock solutions of compounds were prepared in DMSO at 25.6 mg/ml. Compounds were diluted 1:100 in TYI-S-33 medium. A 1:2 serial dilution was then performed in TYI-S-33 medium in 24 well plates.

In data set [2] the test system is Giardia duodenalis (WB strain trophozoites). Briefly: Transmission electron microscopy study. It counts as cell-based. Particulars: 6 μg/ml NCL812, 1 hour. How it is done: Samples were incubated at 37° C. for 1 hour (NCL treated) or 4 hours (Metronidazole and DMSO control) then cold shocked to detach trophozoites. Treated samples were centrifuged at 900×g for 10 minutes and washed twice with cold saline. Final cell pellet was resuspended in pre-cooled fixative (1.25% gluteraldehyde, 4% paraformaldehyde in PBS with 4% sucrose, pH 7.2) and left overnight. […] Samples were embedded in epoxy resin and stained with uranyl acetate and lead citrate before viewing on an FEI Tecnai G2 Spirit Transmission Electron Microscope.

For data set [3], the system named is Leishmania donovani promastigotes. Briefly: L. donovani screening (Alamarblue). It counts as cell-based. The essentials: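 Procyclic promastigotes from exponential cultures screened at 10 μM, 4×10^5 cells/ml, 96 h at 27° C. For dose-response, threefold dilutions from 0.005 to 10 μM, 1×10^6 cells/ml, 72 h at 27° C. Viability read by Alamarblue fluorescence, ex 530/em 590 nm.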

The nature of data set [4]: Cell toxicity assay (WST-1). Particulars: mouse, RAW 264.7, 24 hours, read-out: GI50 macrophage. It counts as cell-based, mouse. In a few lines:
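RAW 264.7 macrophages plated at 2×10^4 cells/ml, rested 2 h at 37 °C, then exposed to compounds (from DMSO) for 24 h. Metabolic activity read by WST-1 at 450 nm after 1 h; IC50 derived, selectivity index as macrophage IC50 divided by antiparasitic IC50.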

The nature of data set [5]: Exposure in male Swiss outbred mice following IV administration. It counts as in vivo. How it is done:
The systemic exposures of NCL026, NCL195, NCL259 and NCL812 were studied in nonfasted male Swiss outbred mice weighing 26.2-32.1 g. Mice had access to food and water ad libitum throughout the pre- and post-dose sampling period. Each compound was administered IV via a bolus injection into the tail vein (vehicle 20% (v/v) DMSO in PEG400, 1 mL/kg dose volume, n=8 mice per compound). […] A maximum of two samples were obtained from each mouse, with samples being taken either via submandibular bleed (approximately 120 μL; conscious sampling) or terminal cardiac puncture (0.6 mL; while mice were anaesthetised using inhaled Isoflurane). No urine samples were collected as mice were housed in bedded cages during the study. Blood was collected directly into polypropylene Eppendorf tubes containing heparin as anticoagulant, and stabilisation cocktail (containing Complete® (a protease inhibitor cocktail with EDTA) and potassium fluoride) to minimise the potential for ex vivo degradation of the test compounds in blood/plasma samples. Once collected, blood samples were centrifuged immediately, supernatant plasma was removed, and stored at −80° C. until analysis by LC-MS using methods standard in the art. Each compound was administered in a vehicle composed of 20% (v/v) DMSO in PEG400. Formulations were prepared by dissolving the compounds in DMSO prior to addition of PEG400. Formulations were not filtered prior to dosing and were administered to mice within 2.5 h of preparation. […] The dose administered to each mouse was calculated on the basis of the measured concentration in the IV formulation, the dose volume and individual mouse body weight. Plasma concentration versus time data were analysed using non-compartmental methods (WinNonlin Version 6.3.0.395). Standard calculations for each pharmacokinetic parameter were calculated using standard methods in the art.

Data set [6] concerns Trypanosoma cruzi (Tulahuen trypomastigotes expressing β-galactosidase, in L6 cells). Kind of data set: In vitro T. cruzi assay for determination of IC50. It counts as cell-based. Conditions: Trypanosoma cruzi, TULAHUEN, L6; 96 h incubation. The essentials:
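Tulahuen T. cruzi expressing β-galactosidase, grown in L6 cells; compounds tested as seven-point serial dilutions in triplicate after removing extracellular trypomastigotes.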

SMILES strings stand for the structures.

Turning to `N=C(N/N=C/c1ccc(Cl)cc1)N/N=C/c1ccc(Cl)cc1` [NCL812, 1,3-bis[(E)-(4-chlorophenyl)methyleneamino]guanidine], the “number of adherent trophozoites” value in data set [1] is given as “significant decreases”. Moreover, the “changes to the ultrastructure of Giardia duodenalis” value in data set [2] is on record as “significant changes”. The “L. donovani SI” value in data set [3] (GI50 of macrophages divided by IC50 of parasites) was determined as 5.12. Besides, the IC50 is 2.9 ± 0.24 µM in data set [3] (Leishmania donovani, 72 h) and more than 11 µM in data set [6]. Besides, the GI50 at 24 h in data set [4] was determined as 14.8 ± 1.34 µM. In addition, the “adverse reactions after IV dosing” value in data set [5] (IV, 5 mg/kg, one mouse) is “abnormal behaviour (frantic, hyperactive)”. Besides, in data set [5] (male, Swiss outbred, mouse, in vivo, IV 5 mg/kg, values marked a, b are approximations, read-out: AUC0-inf), the AUC0-inf was 27.9 µM·h. The Vd in data set [5] (male, Swiss outbred, mouse, in vivo, IV 5 mg/kg, values marked a, b are approximations, read-out: Plasma Vss) stood at 5.9 L/kg. For the same molecule, the clearance in data set [5] (male, Swiss outbred, mouse, plasma, IV 5 mg/kg, values marked a, b are approximations, read-out: Plasma CL) amounted to 0.57 L/h/kg. For the same molecule, in data set [5] (male, Swiss outbred, mouse, IV 5 mg/kg, plasma, value marked b is an approximation, read-out: Apparent t1/2 (converted)), the half-life is 8.2 h.
